# ChEMBL document CHEMBL1667859 (Bioorg Med Chem, 2011)
# Molecular target: 5-hydroxytryptamine receptor 6 (Homo sapiens, UniProt P50406)
# Sequence (P50406 whole entry): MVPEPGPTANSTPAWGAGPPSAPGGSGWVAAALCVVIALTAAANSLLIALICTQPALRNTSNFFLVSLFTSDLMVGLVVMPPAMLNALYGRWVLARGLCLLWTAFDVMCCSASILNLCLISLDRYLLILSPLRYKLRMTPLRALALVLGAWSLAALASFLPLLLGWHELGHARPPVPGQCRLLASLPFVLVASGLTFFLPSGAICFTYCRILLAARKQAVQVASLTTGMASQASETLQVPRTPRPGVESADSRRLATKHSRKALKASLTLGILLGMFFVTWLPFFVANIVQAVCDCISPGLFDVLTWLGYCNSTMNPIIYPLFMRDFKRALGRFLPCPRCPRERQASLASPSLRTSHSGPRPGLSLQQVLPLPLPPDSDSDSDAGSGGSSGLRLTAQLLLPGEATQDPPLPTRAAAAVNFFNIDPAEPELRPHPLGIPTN
# Description: Antagonist activity at human recombinant 5HT6 receptor expressed in HEK293 cells assessed as inhibition of serotonin-induced cAMP accumulation after 2 hrs
row,Compound,Ki [nM]
1,CSc1nn2cccnc2c1S(=O)(=O)c1ccccc1,115
2,CSc1nn2c(C)cc(C)nc2c1S(=O)(=O)c1ccccc1,1.2
3,CSc1nn2ccc(C)nc2c1S(=O)(=O)c1ccccc1,16.6
4,CSc1nn2c(C)ccnc2c1S(=O)(=O)c1ccccc1,16.6
5,CNc1nn2c(C)cc(COC)nc2c1S(=O)(=O)c1ccccc1,0.269
6,CNc1nn2c(CO)cc(C)nc2c1S(=O)(=O)c1ccccc1,0.282
7,COCc1cc(C)nc2c(S(=O)(=O)c3ccccc3)c(SC)nn12,155
8,COCc1cc(C)n2nc(SC)c(S(=O)(=O)c3ccccc3)c2n1,3.24
9,CSc1nn2c(CO)cc(C)nc2c1S(=O)(=O)c1ccccc1,0.562
10,CSc1nn2c(C)cc(CO)nc2c1S(=O)(=O)c1ccccc1,2.14
11,CSc1nn2cccnc2c1S(=O)(=O)c1cccc(Cl)c1,15.1
12,CSc1nn2c(C)cc(C)nc2c1S(=O)(=O)c1cccc(Cl)c1,0.759
13,CSc1nn2c(C)cc(C)nc2c1S(=O)(=O)c1cccc(F)c1,1.07
14,CSc1nn2c(C)cc(C)nc2c1S(=O)(=O)c1ccc(Cl)cc1,3.16
15,CSc1nn2c(C)cc(C)nc2c1S(=O)(=O)c1ccc(F)cc1,6.76
16,CSc1nn2cccnc2c1S(=O)(=O)c1ccc(F)cc1,132
17,CSc1nn2c(C)cc(C)nc2c1S(=O)(=O)c1ccc(O)cc1,3.98
18,COc1ccc(S(=O)(=O)c2c(SC)nn3c(C)cc(C)nc23)cc1,37.2

row,Compound,Ki [nM]
1,CSc1nn2c(C)cc(C)nc2c1S(=O)(=O)c1ccc(N(C)C)cc1,37.2
2,CSc1nn2cccnc2c1S(=O)(=O)c1ccc(F)c(Cl)c1,44.7
3,CSc1nn2c(C)cc(C)nc2c1S(=O)(=O)c1ccc(F)c(Cl)c1,3.8
4,CSc1nn2ccc(C)nc2c1S(=O)(=O)c1ccc(F)c(Cl)c1,7.94
5,CNc1nn2cccnc2c1S(=O)(=O)c1ccccc1,3.89
6,CNc1nn2c(C)cc(C)nc2c1S(=O)(=O)c1ccccc1,0.257
7,CNc1nn2ccc(C)nc2c1S(=O)(=O)c1ccccc1,1.45
8,CNc1nn2c(C)ccnc2c1S(=O)(=O)c1ccccc1,0.24
9,CNc1nn2c(COC)cc(C)nc2c1S(=O)(=O)c1ccccc1,7.59
10,CNc1nn2c(C)cc(CO)nc2c1S(=O)(=O)c1ccccc1,0.479
11,CNc1nn2cccnc2c1S(=O)(=O)c1cccc(Cl)c1,1.17
12,CNc1nn2c(C)cc(C)nc2c1S(=O)(=O)c1cccc(Cl)c1,0.186
13,CNc1nn2c(C)cc(C)nc2c1S(=O)(=O)c1cccc(F)c1,0.501
14,CNc1nn2c(C)cc(C)nc2c1S(=O)(=O)c1ccc(F)cc1,0.398
15,CNc1nn2cccnc2c1S(=O)(=O)c1ccc(F)cc1,11.7
16,CNc1nn2c(C)cc(C)nc2c1S(=O)(=O)c1ccc(O)cc1,2
17,CNc1nn2c(C)cc(C)nc2c1S(=O)(=O)c1ccc(OC)cc1,9.55
18,CNc1nn2c(C)cc(C)nc2c1S(=O)(=O)c1ccc(F)c(Cl)c1,0.603
